# Paper PMC2943919, “Green Tea Catechin, Epigallocatechin Gallate, Suppresses Signaling by the dsRNA Innate Immune Receptor RIG-I” (PLoS ONE, 2010)
# Tests used:
# [1] = target: T1, RIG-I (Retinoic acid-inducible gene I) (Homo sapiens, UniProt O95786); assay: RNA-dependent ATPase assay (ADP-Glo) at […]; type: biochemical; design: gene RIGI; recombinant RIG-I
# T1 sequence (O95786 1-925): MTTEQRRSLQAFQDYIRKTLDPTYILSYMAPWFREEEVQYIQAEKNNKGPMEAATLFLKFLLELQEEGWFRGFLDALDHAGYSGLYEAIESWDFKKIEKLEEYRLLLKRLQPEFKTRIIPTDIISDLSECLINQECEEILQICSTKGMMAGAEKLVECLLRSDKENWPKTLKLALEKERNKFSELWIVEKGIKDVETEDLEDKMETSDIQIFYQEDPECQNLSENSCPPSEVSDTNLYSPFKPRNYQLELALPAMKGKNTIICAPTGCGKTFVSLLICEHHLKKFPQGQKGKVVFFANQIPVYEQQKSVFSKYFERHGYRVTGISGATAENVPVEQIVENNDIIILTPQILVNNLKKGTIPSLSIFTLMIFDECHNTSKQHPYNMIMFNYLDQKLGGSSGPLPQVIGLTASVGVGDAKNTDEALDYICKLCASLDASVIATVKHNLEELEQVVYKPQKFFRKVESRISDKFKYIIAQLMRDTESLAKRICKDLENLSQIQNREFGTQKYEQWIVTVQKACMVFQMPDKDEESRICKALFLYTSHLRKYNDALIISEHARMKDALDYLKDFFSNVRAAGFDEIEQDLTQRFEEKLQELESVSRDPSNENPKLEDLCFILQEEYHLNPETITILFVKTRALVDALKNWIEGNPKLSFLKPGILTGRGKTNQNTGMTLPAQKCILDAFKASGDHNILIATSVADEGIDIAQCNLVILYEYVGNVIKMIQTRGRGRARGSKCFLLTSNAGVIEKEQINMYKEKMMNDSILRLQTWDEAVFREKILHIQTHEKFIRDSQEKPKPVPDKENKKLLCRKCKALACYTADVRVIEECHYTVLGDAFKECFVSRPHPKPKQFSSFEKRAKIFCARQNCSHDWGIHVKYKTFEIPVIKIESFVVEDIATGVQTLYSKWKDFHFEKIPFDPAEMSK
# [2] = target: T1, RIG-I (Retinoic acid-inducible gene I); assay: RNA-dependent ATPase assay (ADP-Glo) with recombinant RIG-I; supported by native gel mobility shift; type: biochemical; design: gene RIGI; recombinant full length RIG-I
Structure (SMILES),RNA-dependent ATPase assay (ADP-Glo) at 0.5 and 1 μM [1],IC50 [2] [nM]
"O=C(O[C@@H]1Cc2c(O)cc(O)cc2O[C@@H]1c1ccc(O)c(O)c1)c1cc(O)c(O)c(O)c1 [ECG, epicatechin gallate]","GCG, ECG, CG and TFDG inhibited the shR9-induced RIG-I ATPase activity to similar degree as EGCG",
"O=C(O[C@@H]1Cc2c(O)cc(O)cc2O[C@@H]1c1cc(O)c(O)c(O)c1)c1cc(O)c(O)c(O)c1 [EGCG, Epigallocatechin gallate]",,< 500
"O=C(O[C@@H]1Cc2c(O)cc(O)cc2O[C@H]1c1cc(O)c(O)c(O)c1)c1cc(O)c(O)c(O)c1 [GCG, gallocatechin gallate]","GCG, ECG, CG and TFDG inhibited the shR9-induced RIG-I ATPase activity to similar degree as EGCG",
